The term Kd denotes the free concentration of one partner at which half of the binding sites on the other are occupied at equilibrium, for simple one-to-one binding.

Molecules are shown by their SMILES. The source made the active and inactive calls. No rule for the calls is given here.

The target in the experiment is Chaperone protein DnaK (Escherichia coli (strain K12)) (UniProt P0A6Y8). Nature of the experiment: binders of DnaK substrate-binding domain, biophysical, NMR, chaperone (AID 1033). The settings on record: Purified DnaK SBD, NMR ligand binding.
Chain of Chaperone protein DnaK (Escherichia coli (strain K12)) (P0A6Y8 whole entry, looked up, the tested form may be a part): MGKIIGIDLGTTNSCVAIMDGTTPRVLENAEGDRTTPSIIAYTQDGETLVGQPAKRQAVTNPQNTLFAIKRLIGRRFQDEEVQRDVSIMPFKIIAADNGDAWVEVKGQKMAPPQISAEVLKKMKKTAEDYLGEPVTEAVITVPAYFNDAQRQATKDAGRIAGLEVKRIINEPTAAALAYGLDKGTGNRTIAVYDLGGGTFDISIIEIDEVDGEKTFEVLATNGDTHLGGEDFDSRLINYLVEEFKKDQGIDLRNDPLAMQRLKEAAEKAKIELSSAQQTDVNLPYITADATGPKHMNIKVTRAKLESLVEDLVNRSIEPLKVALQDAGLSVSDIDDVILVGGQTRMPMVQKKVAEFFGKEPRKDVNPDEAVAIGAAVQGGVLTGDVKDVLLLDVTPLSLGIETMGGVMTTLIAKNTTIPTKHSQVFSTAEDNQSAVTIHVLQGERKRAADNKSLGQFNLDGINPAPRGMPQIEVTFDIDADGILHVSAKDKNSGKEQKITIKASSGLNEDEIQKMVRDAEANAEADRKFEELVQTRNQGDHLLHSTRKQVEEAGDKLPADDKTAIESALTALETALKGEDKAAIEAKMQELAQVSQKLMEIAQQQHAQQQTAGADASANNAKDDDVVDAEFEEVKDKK
For `NCc1cccc2c1OCCO2`, the Kd was > 4 mM (inactive).

In the case of `COc1ccc(-c2coc3cc(O)ccc3c2=O)c(OC)c1`, the Kd was > 4 mM (inactive).

Turning to `OC1CCC(C(F)(F)F)CC1` (stereo unspecified), the Kd is > 4 mM (inactive).

`CC(C)c1c(O)ccc2c1CCC1C(C)(C)CCC[C@]21C` (stereo partly specified): the Kd is > 4 mM (inactive).

For the compound `Cc1ccnc(NS(=O)(=O)c2cccs2)c1`, the Kd is > 4 mM (inactive).

In the case of `Cc1ccc(=O)[nH]c1`, the Kd is > 4 mM (inactive).

On to `CN=C1SC(CC(=O)Nc2ccc(O)cc2)C(=O)N1C` (stereo unspecified), for which the Kd is > 4 mM (inactive).

In the case of `CC1(C)Cc2cccc(CO)c2O1`, the Kd is > 4 mM (inactive).

On to `Cc1ccc(C(=O)N2CCC(C(N)=O)CC2)cc1C`, for which the Kd was > 4 mM (inactive).

In the case of `Cc1ccc(-n2[nH]c(C)cc2=O)cc1`, the Kd was > 4 mM (inactive).

For `CNC(=O)c1ccccc1-c1ccccc1`, the Kd was > 4 mM (inactive).

On to `O=C1c2cccc3cc(S(=O)(=O)O)cc(c23)C(=O)N1O`, for which the Kd was > 4 mM (inactive).

On to `C[C@H]1OC(O[C@H]2[C@@H](O)CC(O[C@H]3[C@@H](O)C[C@H](O[C@H]4CC[C@]5(C)C6CC[C@]7(C)[C@@H](C8=CC(=O)OC8)[C@@H](O)C[C@]7(O)[C@@H]6CC[C@@H]5C4)O[C@@H]3C)O[C@@H]2C)C[C@H](O)C1O` (stereo partly specified), for which the Kd is > 4 mM (inactive).

`COc1ccc(-c2nc(N)n(C(C)=O)n2)cc1`: the Kd was > 4 mM (inactive).

As for `O=C(Oc1ccc2c(c1)OCC2=O)c1ccccc1`, the Kd is > 4 mM (inactive).

On to `NC(=O)C1CCN(C(=S)Nc2ccccc2)CC1`, for which the Kd was > 4 mM (inactive).

As to `O=C1CC(C(=O)O)c2ccccc21` (stereo unspecified), the Kd is > 4 mM (inactive).

For the compound `Cc1noc(C)c1C(=O)Nc1sc(C)c(C)c1C#N`, the Kd is > 4 mM (inactive).

For `c1ccc(-c2nnc(CNCc3ccco3)o2)cc1`, the Kd was > 4 mM (inactive).

Regarding `CCOC(=O)c1nc2ccccc2c(=O)n1N`, the Kd was > 4 mM (inactive).

Consider `COC(=O)C[C@H]1C(C)(C)C(=O)[C@@H]2CC3=C4CC(=O)O[C@@H](c5ccoc5)[C@]4(C)CCC3C1(C)C2=O` (stereo partly specified), for which the Kd was > 4 mM (inactive).

With `CCSc1nc(C)c(CC)c(C)c1C(N)=O`, the Kd was > 4 mM (inactive).

Regarding `COc1c2occc2cc2ccc(=O)oc12`, the Kd was > 4 mM (inactive).

For the compound `Nc1c2c3c(sc2nc(=O)n1N)CCCC3`, the Kd is > 4 mM (inactive).

Turning to `CN(C)S(=O)(=O)c1ccccc1C#N`, the Kd is > 4 mM (inactive).

`CCN1CCN(c2ncnc3c2nnn3C)CC1`: the Kd is > 4 mM (inactive).

On to `Cc1n[nH]c(=S)n(/N=C/c2cccs2)c1=O`, for which the Kd was > 4 mM (inactive).

In the case of `O=C(Cc1cccs1)Nc1ccon1`, the Kd is > 4 mM (inactive).

With `CCOC(=O)c1[nH]c(C)cc1C`, the Kd was > 4 mM (inactive).

As to `C[C@@H](N)[C@@H](O)c1ccccc1`, the Kd was > 4 mM (inactive).

For the compound `CN(C(=O)NC1CCS(=O)(=O)C1)C1CCCCC1` (stereo unspecified), the Kd was > 4 mM (inactive).

`CC(=O)Nc1sccc1C(N)=O`: the Kd is > 4 mM (inactive).

Turning to `Cc1cc(C)nc(/N=C(\N)N2CCc3ccccc32)n1`, the Kd was > 4 mM (inactive).

In the case of `NC(=O)CN1CC(c2ccccc2)CC1=O` (stereo unspecified), the Kd was > 4 mM (inactive).

With `O=C(c1ccc(Cl)c(F)c1F)N1CCCC1`, the Kd was > 4 mM (inactive).

`O=C1CCCCCN1CO`: the Kd is > 4 mM (inactive).

Consider `Nc1ccc(Oc2ccccc2)nc1`, for which the Kd is > 4 mM (inactive).

Regarding `NCCN=C1NS(=O)(=O)c2ccccc21`, the Kd is > 4 mM (inactive).

With `Cc1nc2ccc(NC(=O)N3CCSCC3)cc2s1`, the Kd is > 4 mM (inactive).

With `Cc1ccc(NC(=O)N2CCC(C(N)=O)CC2)cc1`, the Kd is > 4 mM (inactive).

Regarding `CN1CCN(C2CCN(Cc3ccccc3)CC2)CC1`, the Kd is > 4 mM (inactive).

Turning to `COc1cccc(NC(=O)c2nc3ncccn3n2)c1`, the Kd is > 4 mM (inactive).

Consider `CC(C)=CCc1c2c(c(O)c3c(=O)c(O)c(-c4ccccc4)oc13)C=CC(C)(C)O2`, for which the Kd was > 4 mM (inactive).

Take `Cc1nnc(Nc2cccnc2)[nH]c1=O`: the Kd is > 4 mM (inactive).

As for `Oc1cc(O)c2c(c1)O[C@H](c1cc(O)c(O)c(O)c1)[C@H](O)C2`, the Kd was > 4 mM (inactive).

With `COc1cc2c(cc1-c1cc3cc4ccoc4cc3oc1=O)OCO2`, the Kd was > 4 mM (inactive).

Regarding `CCSc1nc(=S)n(CC)c(C)c1C(C)=O`, the Kd is > 4 mM (inactive).

As to `OC12CC3CC(C1)C1(NCCS1)C(C3)C2` (stereo unspecified), the Kd is > 4 mM (inactive).

As for `NS(=O)(=O)c1ccc(F)cc1`, the Kd is > 4 mM (inactive).

`S=C1NC(=S)NC(c2ccc3c(c2)OCO3)N1`: the Kd was > 4 mM (inactive).

In the case of `CC1(C)CC(=O)c2sc(N)nc2C1`, the Kd was > 4 mM (inactive).

With `OC1CCN(C(=S)NC2CC2)CC1`, the Kd is > 4 mM (inactive).

On to `COc1c2c(cc3occ(-c4ccc5c(c4)OCO5)c(=O)c13)OC(C)(C)C=C2`, for which the Kd was > 4 mM (inactive).

As to `Cc1cc(C(=O)Nc2ccc3c(c2)OCO3)cs1`, the Kd was > 4 mM (inactive).

In the case of `NC(=O)CSc1ccc(-c2ccco2)nn1`, the Kd was > 4 mM (inactive).

Regarding `O=c1/c(=C/c2cccs2)sc2ncnn12`, the Kd is > 4 mM (inactive).

Regarding `CC(C)CC(=O)NC1CCSC1=O` (stereo unspecified), the Kd was > 4 mM (inactive).

`Cc1ccc(N2NC(=O)CC2=O)cc1C`: the Kd was > 4 mM (inactive).

Consider `COC(=O)CCSCC(=O)Nc1nccs1`, for which the Kd was > 4 mM (inactive).

As to `CC1(C)CC2C1CC[C@]1(C)CCC3C(C(=O)O)CC(=O)O[C@@]32C1` (stereo partly specified), the Kd was > 4 mM (inactive).

For `O=C(O)c1ccc2snnc2c1`, the Kd is > 4 mM (inactive).

In the case of `COc1ccc2c(c1)O[C@H]1c3ccc(OC)cc3OC[C@@H]21`, the Kd was > 4 mM (inactive).

Turning to `O=c1ccn([C@@H]2O[C@H](COP(=O)(O)OP(=O)(O)OP(=O)(O)O)[C@@H](O)[C@H]2O)c(=O)[nH]1`, the Kd was > 4 mM (inactive).

Take `CC1(C)CC[C@]2(C(=O)O)CC[C@]3(C)C(=CCC4[C@@]5(C)CC[C@@H](O)C(C)(C)C5CC[C@]43C)C2C1` (stereo partly specified): the Kd was > 4 mM (inactive).

On to `NC(=O)C1CCN(C(=O)c2ccccc2F)CC1`, for which the Kd was > 4 mM (inactive).

For `Cc1c(C(=O)NC2=NCCS2)oc2ccccc12`, the Kd is > 4 mM (inactive).

For the compound `CC(C)(C)NC(=O)N1CCC(C(N)=O)CC1`, the Kd was > 4 mM (inactive).

Regarding `NC(=O)c1cccnc1Oc1ccccc1`, the Kd was > 4 mM (inactive).

As for `COC(=O)/C(C)=C\CC12OC(C)(C)C3CC(C=C4C(=O)c5c(OC)c6c(c(CC=C(C)C)c5OC431)OC(C)(CCC=C(C)C)C=C6)C2=O` (stereo unspecified), the Kd is > 4 mM (inactive).

For the compound `O=C(c1ccccc1F)N1CCN(c2ccccc2)CC1`, the Kd was > 4 mM (inactive).

With `CC(=O)c1c(O)c(C)c(O)c2c1OC1=CC(=O)C(C(C)=O)C(=O)C12C` (stereo unspecified), the Kd was > 4 mM (inactive).

As to `Nc1nc(-c2ccncc2)cs1`, the Kd was > 4 mM (inactive).

In the case of `c1ccc(C2NCCc3[nH]cnc32)cc1` (stereo unspecified), the Kd is > 4 mM (inactive).

`CN1CCC(N2CCN(C)CC2)CC1`: the Kd was > 4 mM (inactive).

Turning to `O=C(O)c1cccc(-n2cccc2)c1`, the Kd was > 4 mM (inactive).

For `O=c1[nH]cc(S(=O)(=O)Nc2ccccc2)c(=O)[nH]1`, the Kd is > 4 mM (inactive).

As to `COc1ccc2c(c1)OC/C(=C/c1ccc(O)c(O)c1)C2=O`, the Kd was > 4 mM (inactive).

On to `COC(=O)C[C@H]1C(C)(C)C(OC(C)=O)[C@]2(O)C=C3C(CC[C@]4(C)C3CC(=O)O[C@H]4c3ccoc3)C1(C)C2=O` (stereo partly specified), for which the Kd is > 4 mM (inactive).

As for `Cc1[nH]c2ccccc2c1Cc1n[nH]c(=S)n1C`, the Kd is > 4 mM (inactive).

As to `COc1ccc(N2C(=N)C(C)(C)NC2=O)cc1`, the Kd is > 4 mM (inactive).

In the case of `CSc1ccc(/C=N/n2c(C)nnc2C)cc1`, the Kd is > 4 mM (inactive).

Take `Cc1nn(C)c(C)c1C(=O)O`: the Kd is > 4 mM (inactive).

Consider `CCc1ccc(C(=O)N2CCCC2)s1`, for which the Kd was > 4 mM (inactive).

In the case of `CN1C(=O)/C(=C/c2ccc(O)cc2O)SC1=S`, the Kd was > 4 mM (inactive).

In the case of `Cc1ccc(-c2nnn(CC(=O)O)n2)cc1`, the Kd is > 4 mM (inactive).

With `NC(=O)CSc1ccc(-c2ccccc2)nn1`, the Kd is > 4 mM (inactive).

With `O=C1C2CCCCC2C(=O)N1c1ccc(O)cc1` (stereo unspecified), the Kd was > 4 mM (inactive).

Regarding `NC(=O)C1CCN(S(=O)(=O)c2ccccc2)CC1`, the Kd was > 4 mM (inactive).

For the compound `Cc1scc(C(=O)Nn2cnnc2)c1-c1ccccc1`, the Kd is > 4 mM (inactive).

On to `Cc1nccc2c1[nH]c1ccccc12`, for which the Kd is > 4 mM (inactive).

Regarding `Nc1cc2ccccc2cn1`, the Kd is > 4 mM (inactive).

Regarding `S=C(NCC1CCCO1)NC1CC1` (stereo unspecified), the Kd is > 4 mM (inactive).

As to `CS(=O)(=O)Cc1ccccc1`, the Kd is > 4 mM (inactive).

With `COC(=O)c1noc(C)c1C(C)=O`, the Kd was > 4 mM (inactive).

Turning to `CN(C)C(=O)Nc1ccc(F)cc1F`, the Kd is > 4 mM (inactive).

Regarding `Cc1nc(-c2cc(CO)no2)cs1`, the Kd was > 4 mM (inactive).

Consider `Cc1nnc(Nc2ccc(S(N)(=O)=O)cc2)[nH]c1=O`, for which the Kd was > 4 mM (inactive).

Regarding `CC(=O)Oc1cc(OC(C)=O)c2c(c1)O[C@H](c1ccc(OC(C)=O)c(OC(C)=O)c1)[C@H](OC(C)=O)C2`, the Kd is > 4 mM (inactive).

Consider `Cc1ccc(Nc2nnns2)cc1C`, for which the Kd was > 4 mM (inactive).

For `Cc1ccc(S(=O)(=O)CCc2ccccn2)cc1`, the Kd was > 4 mM (inactive).

As to `CC1(C)CC[C@]2(C(=O)O)CC[C@]3(C)C(=CCC4[C@@]5(C)CC[C@H](O)[C@@](C)(CO)C5CC[C@]43C)C2C1` (stereo partly specified), the Kd is > 4 mM (inactive).

The values are drawn from PubChem BioAssay AID1033 (Sanford-Burnham Center for Chemical Genomics, 2008).
